Here are results for 5 compounds from patent US6900308B2, “α-modified nucleoside triphosphates” (ISIS Pharmaceuticals, Inc., priority 2001, dated 2005).

In general, inhibition refers to the change of the read-out against control, counted positive when it falls.

The target in one assay is T1, HCV NS5B RNA polymerase (Hepatitis C virus genotype 1b, UniProt P26663).
T1 construct: purified hepatitis C NS5B (form with 21 amino acids C-terminally truncated)
The assay can be described thus: Inhibition of HCV NS5B RNA-dependent RNA polymerase on heteromeric RNA template t500 (filter-binding, radiolabelled NTP). It counts as biochemical. The note with it: test concentration not given (compounds tested up to 100 μM); for % I (ATP), Percent Inhibition of HCV NS5B RNA polymerase: [alpha-32P]-ATP label; for % I (GTP), Percent Inhibition of HCV NS5B RNA polymerase: [alpha-32P]-GTP label. The procedure:
This assay can be used to measure the ability of the nucleoside triphosphates of the present invention to inhibit the enzymatic activity of the RNA-dependent RNA polymerase (NS5B) of the hepatitis C virus (HCV) on a heteromeric RNA template.
The following describes assay buffer conditions: (50 μl-total/reaction) • 20 mM Tris, pH 7.5 • 50 μM EDTA • 5 mM DTT • 2 mM MgCl2 • 80 mM KCl • 0.4 U/μl RNAsin (Promega, stock is 40 units/μl) • 0.75 μg t500 (a 500 nt RNA made using T7 runoff transcription with a sequence from the NS2/3 region of the hepatitis C genome) • 1.6 μg purified hepatitis C NS5B (form with 21 amino acids C-terminally truncated) • 1 μM A, C, U, GTP (nucleoside triphosphate mix) • [alpha-^32P]-GTP or [alpha-^32P]-ATP The compounds were tested at various concentrations up to 100 μM final concentration.
An appropriate volume of reaction buffer was made including enzyme and template t500. Nucleoside derivatives of the present invention were pipetted into the wells of a 96-well plate. A mixture of nucleoside triphosphates (NTP's), including the radiolabeled GTP, was made and pipetted into the wells of a 96-well plate. The reaction was initiated by addition of the enzyme-template reaction solution and allowed to proceed at room temperature for 1-2 hours.
The reaction was quenched by addition of 20 μl 0.5 M EDTA, pH 8.0. Blank reactions in which the quench solution is added to the NTPs prior to the addition of the reaction buffer were included.
50 μL of the quenched reaction was spotted onto DE81 filter disks (Whatman) and allowed to dry for 30 minutes. The filters were washed with 0.3 M ammonium formate, pH 8 (150 mL/wash until the cpm in 1 mL wash is less than 100, usually 6 washes). The filters were counted in 5-mL scintillation fluid in a scintillation counter.
The percentage of inhibition is calculated according to the following equation: %Inhibition={1−(cpm in test reaction−cpm in blank)/(cpm in control reaction−cpm in blank)}×100.

A further assay concerns the target wild-type HIV RT (Human immunodeficiency virus type 1 group M subtype B, UniProt P04585). The assay can be described thus: Inhibition of HIV-RT activity (RNA template t500 annealed to DNA primer pD500, [alpha-33P]-dATP incorporation). The format is biochemical. To be noted: for inhibition at 10 µM: read-out: % I (10 μM), Inhibition of HIV-RT; for inhibition at 100 µM: read-out: % I (100 μM), Inhibition of HIV-RT.

T1 sequence (P26663 2420-2989): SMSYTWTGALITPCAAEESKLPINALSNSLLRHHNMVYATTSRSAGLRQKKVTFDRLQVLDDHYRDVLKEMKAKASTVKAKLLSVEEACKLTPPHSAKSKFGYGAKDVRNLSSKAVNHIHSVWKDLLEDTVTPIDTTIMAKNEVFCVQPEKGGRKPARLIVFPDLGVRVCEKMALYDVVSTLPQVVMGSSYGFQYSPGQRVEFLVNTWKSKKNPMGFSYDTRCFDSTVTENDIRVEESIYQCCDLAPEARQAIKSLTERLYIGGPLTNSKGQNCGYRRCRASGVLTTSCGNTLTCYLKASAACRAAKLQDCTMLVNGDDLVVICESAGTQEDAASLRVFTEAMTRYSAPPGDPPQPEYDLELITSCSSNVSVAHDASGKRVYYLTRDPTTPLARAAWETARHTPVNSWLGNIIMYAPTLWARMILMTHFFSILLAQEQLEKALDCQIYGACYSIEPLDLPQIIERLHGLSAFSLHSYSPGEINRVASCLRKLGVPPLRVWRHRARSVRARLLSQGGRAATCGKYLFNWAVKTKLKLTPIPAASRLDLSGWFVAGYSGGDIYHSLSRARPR

On to “2′-O-Methyl guanosine-5′-(α-P-(N-butyl)triphosphate) [compound 23 of Table 2]”, for which, on HCV NS5B RNA polymerase, the “% I (ATP), Percent Inhibition of HCV NS5B RNA polymerase” value turned out to be 90% and the “% I (GTP), Percent Inhibition of HCV NS5B RNA polymerase” value stood at 91%.
In the case of `NCC1COCCOCCOCCOCCO1` (stereo not shown) [compound 11], on wild-type HIV RT, the inhibition at 10 µM is 5.37% and the inhibition at 100 µM is -17.2%.
On to `COc1cc(CN)cc(OC)c1` [compound 10], for which, on wild-type HIV RT, the inhibition at 10 µM is -6.41% and the inhibition at 100 µM is -11.9%.
Take “2′-Deoxythymidine-5′-(α-P-(amino triphosphate) [compound 17 of Table 2]”: on HCV NS5B RNA polymerase, the “% I (ATP), Percent Inhibition of HCV NS5B RNA polymerase” value came to 0.1% and the “% I (GTP), Percent Inhibition of HCV NS5B RNA polymerase” value is recorded as −6%.
On to `NCc1ccc(-c2ccccc2)cc1` [compound 14], for which, on wild-type HIV RT, the inhibition at 10 µM was -2.25% and the inhibition at 100 µM was -12.9%.
